Results reported in patent US20020160986A1, “Compounds having activity as inhibitors of cytochrome P450RAI” (priority 2000, published 2002).

Legend:
RARα [1] = target: T1, RARα (Homo sapiens, UniProt P10276); test: chimeric receptor transactivation assay, RARα; type: cell-based; details: value in parentheses
T1 sequence (P10276 183-417 limits assumed): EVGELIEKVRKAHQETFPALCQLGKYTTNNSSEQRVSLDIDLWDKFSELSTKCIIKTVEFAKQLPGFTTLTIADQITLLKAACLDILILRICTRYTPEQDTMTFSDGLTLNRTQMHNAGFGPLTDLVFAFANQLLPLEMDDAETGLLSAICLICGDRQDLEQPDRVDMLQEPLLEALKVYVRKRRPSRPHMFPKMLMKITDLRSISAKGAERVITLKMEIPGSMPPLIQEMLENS
Description: (§1) Assays described below measure the ability of a compound to bind to, and/or activate various retinoid receptor subtypes. When in these assays a compound binds to a given receptor subtype and activates the transcription of a reporter gene through that subtype, then the compound is considered an agonist of that receptor subtype. […] In the below described assays the ability of the compounds to bind to RAR60 , RAR62 , RARγ, RXR60 , RXR62 , and RXRγ receptors, and the ability or inability of the compounds to activate transcription of a reporter gene through these receptor subtypes can be tested.
(§2) As far as specific assays are concerned, a chimeric receptor transactivation assay which tests for agonist-like activity in the RAR60 , RARβ, and RARγ, receptor subtypes, and which is based on work published by Feigner P. L. and Holm M. (1989) Focus, 112 is described in detail in U.S. Pat. No. 5,455,265. The specification of U.S. Pat. No. 5,455,265 is hereby expressly incorporated by reference. The numeric results obtained with several preferred compounds of this invention in this assay are shown below in Table 1.
(§3) A holoreceptor transactivation assay and a ligand binding assay which measure the antagonist/agonist like activity of the compounds of the invention, or their ability to bind to the several retinoid receptor subtypes, respectively, are described in published PCT Application No. WO WO93/11755 (particularly on pages 30-33 and 37-41) published on Jun. 24, 1993, the specification of which is also incorporated herein by reference. A detailed experimental procedure for holoreceptor transactivations has been described by Heyman et al. Cell 68,397-406, (1992); Allegretto et al. J. Biol. Chem. 268,26625-26633, and Mangelsdorf et al. The Retinoids: Biology, Chemistry and Medicine, pp 319-349, Raven Press Ltd., New York, which are expressly incorporated herein by reference. The results obtained in this assay are expressed in EC50 numbers, as they are also in the chimeric receptor transactivation assay. The results of ligand binding assay are expressed in Kd numbers. (See Cheng et al. Biochemical Pharmacology Vol. 22 pp 3099-3108, expressly incorporated herein by reference.)

RARβ = target: T2, RARβ (Homo sapiens, UniProt P10826); test: chimeric receptor transactivation assay, RARβ; type: cell-based; details: value in parentheses
T2 sequence (P10826 183-417 limits assumed): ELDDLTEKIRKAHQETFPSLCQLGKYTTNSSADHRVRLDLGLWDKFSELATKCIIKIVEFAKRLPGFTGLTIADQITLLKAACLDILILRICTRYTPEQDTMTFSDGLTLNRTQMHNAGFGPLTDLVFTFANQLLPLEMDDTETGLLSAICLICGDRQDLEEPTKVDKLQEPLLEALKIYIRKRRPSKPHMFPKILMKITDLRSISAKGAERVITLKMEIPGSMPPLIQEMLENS
Description: as §1
as §2, with “reference.” for “reference. The numeric results obtained with several preferred compounds of this invention in this assay are shown below in Table 1.”
as §3, with “A detailed experimental procedure for holoreceptor transactivations has been described by Heyman et al. Cell 68,397-406, (1992); Allegretto et al. J. Biol. Chem. 268,26625-26633, and Mangelsdorf et al. The Retinoids: Biology, Chemistry and Medicine, pp 319-349, Raven Press Ltd., New York, which are expressly incorporated herein by reference.” left out

RARγ = target: T3, RARγ (Homo sapiens, UniProt P13631); test: chimeric receptor transactivation assay, RARγ; type: cell-based; details: value in parentheses
T3 sequence (P13631 185-419 limits assumed): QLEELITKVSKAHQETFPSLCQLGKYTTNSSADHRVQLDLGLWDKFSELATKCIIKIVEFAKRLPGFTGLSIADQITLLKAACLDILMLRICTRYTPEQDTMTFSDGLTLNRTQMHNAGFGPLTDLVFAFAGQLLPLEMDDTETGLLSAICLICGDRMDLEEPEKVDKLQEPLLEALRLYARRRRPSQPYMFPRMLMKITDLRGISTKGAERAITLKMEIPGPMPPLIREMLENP
Description: as §1, §2, §3

RARα [2] = target: T4, RARα (Homo sapiens, UniProt P10276); test: ligand binding assay, RARα; details: read-out: RAR α Kd
T4 sequence (P10276 1-462): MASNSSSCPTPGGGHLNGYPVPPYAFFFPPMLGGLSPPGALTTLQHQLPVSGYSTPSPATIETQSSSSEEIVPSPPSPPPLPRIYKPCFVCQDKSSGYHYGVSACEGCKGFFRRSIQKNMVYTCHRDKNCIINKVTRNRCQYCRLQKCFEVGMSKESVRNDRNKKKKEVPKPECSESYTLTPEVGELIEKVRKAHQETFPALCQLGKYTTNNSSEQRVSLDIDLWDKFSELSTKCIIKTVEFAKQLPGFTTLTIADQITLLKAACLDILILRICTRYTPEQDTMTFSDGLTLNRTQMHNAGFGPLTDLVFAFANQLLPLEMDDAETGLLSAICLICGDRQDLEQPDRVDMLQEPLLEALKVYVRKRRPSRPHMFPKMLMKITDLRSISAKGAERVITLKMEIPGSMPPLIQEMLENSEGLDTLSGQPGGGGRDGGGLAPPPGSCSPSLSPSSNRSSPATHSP
Description: as §1
as §3, with “The results obtained in this assay are expressed in EC50 numbers, as they are also in the chimeric receptor transactivation assay. The results of ligand binding assay are expressed in Kd numbers. (See Cheng et al. Biochemical Pharmacology Vol. 22 pp 3099-3108, expressly incorporated herein by reference.)” left out

SMILES | RAR α (EFFICACY) (RARα [1]) | RAR β (EFFICACY) (RARβ) | RAR γ (EFFICACY) (RARγ) | Kd (RARα [2])
CN(C1CC1)C1CCC(C)(C)c2cc(C#Cc3ccc(C(=O)O)cc3)ccc21 (stereo not drawn) [Compound 3, 4-[(5-Cyclopropyl-methyl-amino)-8,8-dimethyl-5,6,7,8-tetrahydro-naphthalene-2yl-ethynyl]-benzoic acid] | (28) | (54) | (52) | 
CC1(C)CCC(=O)c2ccc(C#Cc3ccc(CC(=O)O)cc3)cc21 [Compound 5, 4-[(8,8-Dimethyl-5-oxo-5,6,7,8-tetrahydro-naphthalene-2-yl-ethynyl)-phenyl]-acetic acid] |  | (36) |  | 
CN(C1CC1)C1CCC(C)(C)c2cc(C#Cc3ccc(CC(=O)O)cc3)ccc21 (stereo not drawn) [Compound 8, 4-[(5-(Cyclopropyl-methyl-amino)-8,8-dimethyl-5,6,7,8-tetrahydro-naphthalene-2-yl-ethynyl)-phenyl]-acetic acid] |  | (96) |  | 
CC1(C)CCC(=O)c2ccc(C#Cc3ccc(C(=O)O)c(F)c3)cc21 [Compound 10, 2-Fluoro-4-(818-dimethyl-5-oxo-5,6,7,8-tetrahydro-naphthalen-2yl-ethynyl)-benzoic acid] | (146) | (86) | (94) | 
CN(C1CC1)C1CCC(C)(C)c2cc(C#Cc3ccc(C(=O)O)c(F)c3)ccc21 (stereo not drawn) [Compound 13, 4-[5-(Cyclopropyl-methyl-amino)-8,8-dimethyl-5,6,7.8-tetrahydro-naphthalene-2-yl-ethynyl]-2-fluoro benzoic acid] |  | (6.6) | (9) | 
CC1(C)CC2(CC2)Oc2ccc(C#Cc3ccc(C(=O)O)cc3)cc21 [Compound 40, Benzoic acid, 4-[(3,4-dihydro-4,4-dimethylspiro[2H-1-benzopyran-2,1′-cyclopropane]-6-yl)ethynyl]-] | (207) | (126) | (140) | 
CC1(C)CC2(CC2)Oc2ccc(C#Cc3ccc(C(=O)O)c(F)c3)cc21 [Compound 44, 2-Fluoro-benzoic acid, 4-[(3,4-dihydro-4,4-dimethylspiro[2H-1-benzopyran-2,1′-cyclopropane]-6-yl)ethynyl]-] | (138) | (100) | (116) | 
CC1(C)CC(C)(C)c2cc(C(=O)Oc3ccc(CC(=O)O)cc3)ccc2O1 [Compound 46, 2,2,4,4-Tetramethyl-chroman-6-carboxylic acid 4-(carboxymethyl)phenyl ester] |  |  |  | > 10 µM
COC1(c2ccc(C#Cc3ccc(C(=O)O)cc3)cc2)CC1 [Compound 69, 4-[4-(1-Methoxycyclopropyl)-phenylethynyl]-benzoic acid] | (10) | (50) | (31) | 
CC(C)OC1(c2ccc(C#Cc3ccc(C(=O)O)cc3)cc2)CC1 [Compound 73, 4-[4-(1-Isopropoxycyclopropyl)-phenylethynyl]-benzoic acid] |  | (39) | (24) | 
Cc1cc(C#Cc2ccc(C(=O)O)cc2)ccc1C1(OCc2ccccc2)CC1 [Compound 81, 4-[4-(1-Benzyloxycyclopropyl)-3-methyl-phenylethynyl]-benzoic acid] |  | (80) | (67) | 
Cc1cc(C#Cc2ccc(C(=O)O)cc2)ccc1C1(OC(C)C)CC1 [Compound 85, 4-[4-(1-Isopropoxycyclopropyl)-3-methyl-phenylethynyl]-benzoic acid] | (60) | (77) | (65) | 
Cc1cc(C#Cc2ccc(C(=O)O)cc2)ccc1C1(OCC(C)(C)C)CC1 [Compound 89, 4-[4-[1-(2,2-Dimethylpropyloxy)-cyclopropyl]-3-methyl-phenylethynyl]-benzoic acid] | (20) | (50) | (46) | 
CCc1cc(C#Cc2ccc(C(=O)O)cc2)ccc1C1(OCc2ccccc2)CC1 [Compound 93, 4-[4-(1-Benzyloxycyclopropyl)-3-ethyl-phenylethynyl]-benzoic acid] | (114) | (39) | (55) | 
CCCNC1(c2ccc(C#Cc3ccc(C(=O)O)cc3)cc2)CC1 [Compound 108, 4-[4-(1-Propylamino-cyclopropyl)-phenylethynyl]-benzoic acid] | (15) | (36) | (10) | 
CCCN(CCC)C1(c2ccc(C#Cc3ccc(C(=O)O)cc3)cc2)CC1 [Compound 110, 4-[4-(1-Dipropylamino-cyclopropyl)-phenylethynyl]-benzoic acid] |  | (44) | (42) | 
O=C(O)c1ccc(C#Cc2ccc(C3(NCc4ccccc4)CC3)cc2)cc1 [Compound 112, 4-[4-(1-Benzylamino-cyclopropyl)-phenylethynyl]-benzoic acid] |  | (37) |  | 
